In this assay the test system is Candida albicans. The assay is described as follows: Antifungal activity against Candida albicans NCPF 3153 after 15 hrs by colorimetric broth microdilution test. As to conditions: NCPF 3153, 15 h. Format: functional.

In brackets after ≈: the same amount, converted by molar mass.

In turn, `C[C@H]1CCC/C=C/[C@@H]2C[C@H](O)C[C@H]2[C@H](O)/C=C/C(=O)O1` [BREFELDIN A] came in with an MIC of 32 µg/mL (≈ 114 µM).

These data come from ChEMBL document CHEMBL2046269, “Phthalide and isocoumarin derivatives produced by an Acremonium sp. isolated from a mangrove Rhizophora apiculata” (2012).
